In ChEMBL document CHEMBL3872266, “Synthesis and characterization of novel, conjugated, fluorescent DNJ derivatives for α-glucosidase recognition” (Bioorg Med Chem, 2017):

Legend:
[1] = target: T1, Sucrase-isomaltase, intestinal (Rattus norvegicus, UniProt P23739); experiment: Inhibition of rat small intestinal brush border membrane isomaltase assessed as reduction in production of D-glucose using disaccharides as substrate incubated for 10 to 30 mins
[2] = Inhibition of almond beta-glucosidase assessed as reduction in production of D-glucose using disaccharides as substrate incubated for 10 to 30 mins; set-up: species or system Prunus dulcis
[3] = Inhibition of rat small intestinal brush border membrane cellobiase assessed as reduction in production of D-glucose using disaccharides as substrate incubated for 10 to 30 mins
[4] = target: T1, Sucrase-isomaltase, intestinal; experiment: Inhibition of rat small intestinal brush border membrane sucrase assessed as reduction in production of D-glucose using disaccharides as substrate incubated for 10 to 30 mins
[5] = Inhibition of rat small intestinal brush border membrane maltase assessed as reduction in production of D-glucose using maltose as substrate incubated for 10 to 30 mins
[6] = Inhibition of rice alpha-glucosidase assessed as reduction in production of D-glucose using disaccharides as substrate incubated for 10 to 30 mins; set-up: species or system Oryza sativa

T1 sequence (P23739 1-1013 limits assumed): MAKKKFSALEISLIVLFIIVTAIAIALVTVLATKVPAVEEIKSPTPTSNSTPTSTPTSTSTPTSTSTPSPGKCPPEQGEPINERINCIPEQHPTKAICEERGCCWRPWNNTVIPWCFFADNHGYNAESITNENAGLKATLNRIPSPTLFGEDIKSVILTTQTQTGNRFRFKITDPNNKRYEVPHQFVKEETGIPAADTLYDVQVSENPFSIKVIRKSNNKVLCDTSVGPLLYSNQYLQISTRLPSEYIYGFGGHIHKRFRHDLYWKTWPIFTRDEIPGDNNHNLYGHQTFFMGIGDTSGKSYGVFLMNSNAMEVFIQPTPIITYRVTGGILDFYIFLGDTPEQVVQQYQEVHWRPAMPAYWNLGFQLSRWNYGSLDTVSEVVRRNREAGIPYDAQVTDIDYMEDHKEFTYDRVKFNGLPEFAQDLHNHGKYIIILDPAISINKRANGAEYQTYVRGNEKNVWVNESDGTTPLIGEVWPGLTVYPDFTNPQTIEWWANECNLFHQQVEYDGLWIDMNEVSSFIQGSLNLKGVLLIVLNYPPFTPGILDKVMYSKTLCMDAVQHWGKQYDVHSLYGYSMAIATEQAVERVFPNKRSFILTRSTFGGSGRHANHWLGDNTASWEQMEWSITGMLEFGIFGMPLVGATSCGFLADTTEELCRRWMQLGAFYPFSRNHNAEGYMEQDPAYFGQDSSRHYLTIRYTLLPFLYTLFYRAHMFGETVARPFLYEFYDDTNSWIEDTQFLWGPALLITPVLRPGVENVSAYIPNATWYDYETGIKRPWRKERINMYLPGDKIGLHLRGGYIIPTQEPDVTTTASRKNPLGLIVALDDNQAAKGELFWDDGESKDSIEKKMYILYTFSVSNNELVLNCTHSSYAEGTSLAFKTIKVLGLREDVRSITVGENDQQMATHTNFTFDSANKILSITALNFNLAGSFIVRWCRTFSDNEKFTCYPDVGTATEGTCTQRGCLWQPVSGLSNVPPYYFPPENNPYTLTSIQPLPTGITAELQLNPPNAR
T1 sequence (P23739 1014-1841 limits assumed): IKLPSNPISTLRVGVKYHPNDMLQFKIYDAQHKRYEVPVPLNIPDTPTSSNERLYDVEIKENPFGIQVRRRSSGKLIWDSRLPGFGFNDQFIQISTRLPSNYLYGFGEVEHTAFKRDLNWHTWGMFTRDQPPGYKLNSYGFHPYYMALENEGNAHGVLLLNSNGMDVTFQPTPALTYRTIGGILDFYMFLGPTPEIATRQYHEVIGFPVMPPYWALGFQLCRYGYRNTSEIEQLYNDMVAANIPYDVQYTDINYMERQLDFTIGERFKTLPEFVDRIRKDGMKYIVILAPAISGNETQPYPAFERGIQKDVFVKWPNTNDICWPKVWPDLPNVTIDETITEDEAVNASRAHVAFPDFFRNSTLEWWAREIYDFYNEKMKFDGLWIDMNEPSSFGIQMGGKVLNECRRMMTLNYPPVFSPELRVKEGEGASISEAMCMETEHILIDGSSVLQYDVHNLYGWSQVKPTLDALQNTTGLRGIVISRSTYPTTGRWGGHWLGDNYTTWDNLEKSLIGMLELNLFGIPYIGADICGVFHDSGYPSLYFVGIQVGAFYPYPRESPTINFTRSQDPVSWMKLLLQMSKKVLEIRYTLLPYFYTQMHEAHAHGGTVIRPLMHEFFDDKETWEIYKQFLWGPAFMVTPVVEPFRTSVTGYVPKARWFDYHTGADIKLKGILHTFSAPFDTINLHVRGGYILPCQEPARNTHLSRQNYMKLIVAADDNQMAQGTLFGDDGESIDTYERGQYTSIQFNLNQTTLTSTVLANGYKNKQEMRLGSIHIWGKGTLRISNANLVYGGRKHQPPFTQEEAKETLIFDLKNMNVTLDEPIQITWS

SMILES	IC50 [1]	IC50 [2]	IC50 [3]	IC50 [4]	IC50 [5]	IC50 [6]
O=c1cc(C(F)(F)F)c2ccc(OCCCCn3cc(CCCCN4C[C@H](O)[C@@H](O)[C@H](O)[C@H]4CO)nn3)cc2o1	4100 nM	3800 nM	219000 nM	950 nM	540 nM	57 nM
O=c1ccc2nc3ccc(OCCCCn4cc(CCCCN5C[C@H](O)[C@@H](O)[C@H](O)[C@H]5CO)nn4)cc3oc-2c1	6300 nM		175000 nM	2700 nM	650 nM	2100 nM
CCN(CC)c1ccc2cc(C(=O)NCCOCCOCCOCCn3cc(CCCCN4C[C@H](O)[C@@H](O)[C@H](O)[C@H]4CO)nn3)c(=O)oc2c1	13600 nM		304000 nM	1400 nM	100 nM	110 nM
Cc1cc(=O)oc2cc(OCCCCn3cc(CCCCN4C[C@H](O)[C@@H](O)[C@H](O)[C@H]4CO)nn3)ccc12	1400 nM	9300 nM	53600 nM	540 nM	150 nM	42 nM
CN(C)c1cccc2c(S(=O)(=O)NCCOCCn3cc(CCCCN4C[C@H](O)[C@@H](O)[C@H](O)[C@H]4CO)nn3)cccc12	4600 nM	97800 nM	414000 nM	1900 nM	910 nM	91 nM
OC[C@H]1NC[C@H](O)[C@@H](O)[C@@H]1O [DUVOGLUSTAT]		85000 nM	327000 nM			50 nM
OCCN1C[C@H](O)[C@@H](O)[C@H](O)[C@H]1CO [MIGLITOL]		378000 nM	164000 nM		590 nM	99 nM
